mortality, LC50 and LD50 data for nine molecules are collected here from ChEMBL document CHEMBL3045360, “Natural toxins for use in pest management” (2010).

What all share (format): functional
The subject of test [1] is Pomacea canaliculata. The test can be described thus: Molluscicidal activity against Pomacea canaliculata assessed as mortality at 200 uM after 24 hr.
The test system of test [2] is Pomacea canaliculata. The test can be described thus: Molluscicidal activity against Pomacea canaliculata.
Test [3] has as its system Aedes aegypti. Description: Insecticidal activity against Aedes aegypti assessed as insect mortality at 2 ppm.
Test [4] relates to Aedes aegypti. Description: Insecticidal activity against Aedes aegypti assessed as lethal compound dose per mosquito measured after 24 hr post topical application.
Test [5] relates to Pomacea canaliculata. The test can be described thus: Molluscicidal activity against Pomacea canaliculata assessed as mortality at 75 uM after 24 hr.
Test [6] deals with Planorbella trivolvis. The test can be described thus: Molluscicidal activity against Planorbella trivolvis.

SMILES strings stand for the structures.

Usually mortality stands for the percentage killed. As a reminder, the LC50 is the concentration that kills 50% of the test population. High values mean lower toxicity, low ones greater toxicity. Take `CC1OC(C)OC(C)OC(C)O1` (stereo unspecified) [METALDEHYDE]: in test [1], the mortality at 200 µM amounted to 100%. The molecule also registered a 50% lethal concentration (LC50) in test [2] of 30 µM.
Consider `O=C(/C=C/C=C/CCCCCCc1ccc2c(c1)OCO2)N1CCCCC1`, for which the mortality at 2 ppm in test [3] was determined as 20%.
On to `COC(=O)N(C(=O)N1CO[C@@]2(C(=O)OC)Cc3cc(Cl)ccc3C2=N1)c1ccc(OC(F)(F)F)cc1` [INDOXACARB], for which the mortality at 2 ppm in test [3] came out at 40%.
As to `C=CCCCCCCCCC(=O)N1CCCCC1CC` (stereo unspecified) [2-ethyl-1-undec-10-enoyl-piperidine], the LD50 in test [4] worked out at 0.8 µg.
On to `CC1=CC(=O)C2C3C1C2(C)CCCC3(C)C` (stereo unspecified) [VULGARONE B], for which the mortality at 75 µM in test [5] came out at 100%. Moreover, the LC50 in test [2] is 30 µM.
Turning to `CC(C)NC(=O)/C=C/C=C/CCCCCCc1ccc2c(c1)OCO2`, the mortality at 2 ppm in test [3] was determined as 80%.
In the case of `CC1(C)CC[C@]2(C(=O)O)CC[C@]3(C)C(=CC[C@@H]4[C@@]5(C)CC[C@H](O[C@@H]6O[C@H](CO)[C@@H](O)[C@H](O)[C@H]6O)[C@@](C)(CO)[C@@H]5CC[C@]43C)[C@@H]2C1` [Hederagenin-3-O-beta-D-glucopyranoside], the 50% lethal concentration (LC50) in test [6] came out at 30 µM. This counts as double-digit micromolar.
As to `O=C(/C=C/C=C/c1ccc2c(c1)OCO2)N1CCCCC1` [PIPERINE], the LD50 in test [4] amounted to 8.13 µg.
As for `C/C=C\C#CC#C/C=C\C(=O)OC` [(2Z,8Z)-MATRICARIA ACID METHYL ESTER], the LC50 in test [6] was 24 µM. This counts as double-digit micromolar.
